# Measurements published in US6239171A, “Tocotrienols and tocotrienol-like compounds and methods for their use” (Lipogenics, Inc., priority 1998, dated 2001).
# Experiments:
# chickens [1] = assay: Antibody titers to sheep red blood cells in chickens; type: in vivo, chicken; details: control diet + 50 ppm, 4 weeks, sheep red blood cells i.p.
# [2] = test system: cholesterol 7α-hydroxylase; assay: Hepatic cholesterol 7α-hydroxylase activity in hypercholesterolemic swine; type: in vivo; details: control diet + 50 ppm
# Excerpt: All assays conducted on chicken or swine serum were done following the protocols described in A. A. Qureshi et al., "Lowering Of Serum Cholesterol In Hypercholesterolemic Humans By Tocotrienols" (Palmvitee), Am. J. Clin. Nutr., 53, pp. 1021S-26S (1991). All enzymatic assays were done following the protocols described in A. A. Qureshi et al., "Effects of Cereals and Culture Filtrate of Trichoderma viride on Lipid Metabolism of Swine", Lipids, 17, pp. 924 (1982). Plasma insulin, glucagon and TNF levels were measured using radioinnumoassay kits from Ventrex Laboratories, Inc. (Portland, Me.), ICN Biomedicals, Inc. (Costa Mesa, Calif.) and Genzyme Corp. (Cambridge, Mass.), respectively.
# We next measured the effects of various tocotrienols from rice bran on HMG-CoA reductase and cholesterol 7α-hydroxylase in hypercholesterolemic swine. Since pigs are very similar to humans in their cholesterol metabolism, they provide a useful model from which to study hypercholesterolemia and related diseases. […] The serum cholesterol concentration in these swine is typically above 300-500 mg/dl, as compared to 120-160 mg/dl in normal adult swine. As a result, the pigs develop complicated atherosclerotic plaques that closely resemble advanced atherosclerotic lesions found in humans.
# (§1) Each group of three 5-month old swine was administered either a control diet or a control diet supplemented with 50 ppm of TRF or 50 ppm of an individual tocotrienol. The samples were prepared as described in Example 11. After a 12 hour fast, serum and plasma samples were taken a 0 hrs, 21 days and 42 days from the start of the feeding period. After taking serum and plasma samples from the pigs at the end of the 42 day period, all of the swine were fasted for a total of 40 hours, followed by a 48 hour refeeding period. One swine from each group was sacrificed at that time and the liver, intestine, lung, heart, loin muscle, adipose tissue and ham muscle were removed.
# chickens [3] = assay: Plasma thromboxane B2 and platelet factor 4 in chickens fed supplemented diets; type: in vivo, chicken; details: control diet + 50 ppm, 4 weeks
# Excerpt: We next measured the effects of TRF and its components on serum levels of apolipoprotein (a)1, apolipoprotein B, triglycerides and glucose and the plasma levels of thromboxane B2 and platelet factor 4.
# [4] = test system: hypercholesterolemic swine; assay: Total cholesterol, triglyceride and glucose concentrations in tissues of hypercholesterolemic swine; type: in vivo; details: control diet + 50 ppm, 42 days
# Experimental: as §1, with “The samples were prepared as described in Example 11.” left out
# We next determined the effect of tocotrienols on the total cholesterol, triglyceride and glucose concentrations in various tissues of hypercholesterolemic swine.
smiles,measurement,setting,value
"CC(C)=CCC/C(C)=C/CC/C(C)=C/CCC1(C)CCc2cc(O)ccc2O1 (stereo not drawn) [P21, 3,4-dihydro-2-methyl-2-(4,8,12-trimethyltrideca-3' (E),7'(E),11'-trienyl)-2H-1-benzopyran-6-ol]",IgG antibody titers in serum,chickens [1],1.50 ± 1.18 Log 2
same,IgM antibody titers in serum,chickens [1],7.17 Log 2
same,Total Ab titers in serum,chickens [1],8.67 ± 1.92 Log 2
same,"CHOLESTEROL 7α-HYDROXYLASE, percentage of baseline value",[2]; 21 days,99.34%
same,Cholesterol 7α-hydroxylase,[2]; 21 days,4.50 pg/min/mg of microsomes
same,"CHOLESTEROL 7α-HYDROXYLASE, Percentage of Control Activity",[2]; 42 days,98.38%
same,"CHOLESTEROL 7α-HYDROXYLASE, percentage of baseline value",[2]; 42 days,102.21%
same,Cholesterol 7α-hydroxylase,[2]; 42 days,4.63 pg/min/mg of microsomes
same,Platelet Factor 4,chickens [3],7.76 ng/mL
same,"Platelet Factor 4, percentage of control",chickens [3],59.28%
same,Thromboxane B2,chickens [3],16.74 pg/mL
same,"Thromboxane B2, percentage of control",chickens [3],64.78%
same,"TOTAL CHOLESTEROL CONCENTRATION, Adipose Tissue",[4],89.85 mg/100 gm
same,"TOTAL CHOLESTEROL CONCENTRATION, Ham Muscle",[4],79.51 mg/100 gm
same,"TOTAL CHOLESTEROL CONCENTRATION, Heart",[4],53.63 mg/100 gm
same,"TOTAL CHOLESTEROL CONCENTRATION, Intestine",[4],180.59 mg/100 gm
same,"TOTAL CHOLESTEROL CONCENTRATION, Liver",[4],136.70 mg/100 gm
same,"TOTAL CHOLESTEROL CONCENTRATION, Loin Muscle",[4],100.58 mg/100 gm
same,"TOTAL CHOLESTEROL CONCENTRATION, Lung",[4],75.68 mg/100 gm
same,"TOTAL CHOLESTEROL, Adipose Tissue, percentage of control",[4],82.13%
same,"TOTAL CHOLESTEROL, Ham Muscle, percentage of control",[4],79.51%
same,"TOTAL CHOLESTEROL, Heart, percentage of control",[4],83.13%
same,"TOTAL CHOLESTEROL, Intestine, percentage of control",[4],83.80%
same,"TOTAL CHOLESTEROL, Liver, percentage of control",[4],67.81%
same,"TOTAL CHOLESTEROL, Loin Muscle, percentage of control",[4],84.09%
same,"TOTAL CHOLESTEROL, Lung, percentage of control",[4],74.39%
same,"TOTAL GLUCOSE CONCENTRATION, Adipose Tissue",[4],16.67 mg/100 gm
same,"TOTAL GLUCOSE CONCENTRATION, Ham Muscle",[4],54.01 mg/100 gm
same,"TOTAL GLUCOSE CONCENTRATION, Heart",[4],44.17 mg/100 gm
same,"TOTAL GLUCOSE CONCENTRATION, Intestine",[4],62.50 mg/100 gm
same,"TOTAL GLUCOSE CONCENTRATION, Liver",[4],374.22 mg/100 gm
same,"TOTAL GLUCOSE CONCENTRATION, Loin Muscle",[4],55.45 mg/100 gm
same,"TOTAL GLUCOSE CONCENTRATION, Lung",[4],61.92 mg/100 gm
same,"TOTAL GLUCOSE, Adipose Tissue, percentage of control",[4],90.89%
same,"TOTAL GLUCOSE, Ham Muscle, percentage of control",[4],100.35%
same,"TOTAL GLUCOSE, Heart, percentage of control",[4],89.69%
same,"TOTAL GLUCOSE, Intestine, percentage of control",[4],86.84%
same,"TOTAL GLUCOSE, Liver, percentage of control",[4],92.35%
same,"TOTAL GLUCOSE, Loin Muscle, percentage of control",[4],77.84%
same,"TOTAL GLUCOSE, Lung, percentage of control",[4],92.51%
same,"TOTAL TRIGLYCERIDES CONCENTRATION, Adipose Tissue",[4],282.82 mg/100 gm
same,"TOTAL TRIGLYCERIDES CONCENTRATION, Ham Muscle",[4],182.16 mg/100 gm
same,"TOTAL TRIGLYCERIDES CONCENTRATION, Heart",[4],142.38 mg/100 gm
same,"TOTAL TRIGLYCERIDES CONCENTRATION, Intestine",[4],347.75 mg/100 gm
same,"TOTAL TRIGLYCERIDES CONCENTRATION, Liver",[4],386.25 mg/100 gm
same,"TOTAL TRIGLYCERIDES CONCENTRATION, Loin Muscle",[4],194.75 mg/100 gm
same,"TOTAL TRIGLYCERIDES CONCENTRATION, Lung",[4],165.47 mg/100 gm
same,"TOTAL TRIGLYCERIDES, Adipose Tissue, percentage of control activity",[4],64.91%
same,"TOTAL TRIGLYCERIDES, Ham Muscle, percentage of control activity",[4],98.03%
same,"TOTAL TRIGLYCERIDES, Heart, percentage of control activity",[4],98.72%
same,"TOTAL TRIGLYCERIDES, Intestine, percentage of control activity",[4],97.24%
same,"TOTAL TRIGLYCERIDES, Liver, percentage of control activity",[4],89.96%
same,"TOTAL TRIGLYCERIDES, Loin Muscle, percentage of control activity",[4],88.65%
same,"TOTAL TRIGLYCERIDES, Lung, percentage of control activity",[4],96.22%
